In US8653069B2, “Aralkyl substituted piperidine or piperazine derivatives and their use for treating schizophrenia” (Jiangsu Hengyi Pharmaceutical Co., Ltd., priority 2008, dated 2014) one finds IC50 and LD50 data, which are given here for 28 molecules.

Structures can show the parent of a compound that is named as a salt.

For one series, the target named is T1, dopamine D2 receptor (Homo sapiens, UniProt P14416).
T1 construct: expressed in transfected cells; host or cells: CHO-hD2L cells (membrane preparation)
Nature of the series: Dopamine D2 receptor-binding assay ([3H]Spiperone displacement). To be noted: inhibition of binding of 0.4 nM [3H]Spiperone, CHO-hD2L film product, room temperature 120 minutes; read-out: IC50 (affinity to D2 receptor). The procedure:
A Dopamine D2 Receptor-Binding Assay
An isotope ligand for D2 receptor: [^3H]Spiperone (77.0 Ci/mmol); (+)Butaclamol; GF/C glass fiber media; a liposoluble scintillation solution; and the D2 receptor protein expressed by sf9 cells.
A binding assay of a film product of CHO-hD2L cells and [^3H]Spiperone is conducted in a 250 μl of 50 mM of Tris-HCl […] buffer (Ph=7.4) solution comprising 100 mM of NaCl, 1 mM of MgC12 and 1% of DMSO. A sample in duplicate containing compounds to be tested, 0.4 nM of [^3H]Spiperone and 12 ug of protein is maintained at room temperature for 120 minutes. The bound radioactive ligand is separated by flash filtration under reduced pressure using Whatman GF/B glass fiber filter pre-treated with 0.3% polyethylenelmine, and radioactivity maintained on the filter is measured using liquid scintillation spectrophotometry. The title compounds in the following examples are tested using the above test, which comprises first of all testing competitive inhibition rate of each compound at a concentration of 10 umol/L to binding of [^3H]Spiperone to D2 receptor through a rough screening; and compounds having inhibition rate higher than 95% are subjected to receptor binding assay under a series of concentrations to determine a half-inhibitory concentration (IC50, the concentration of a compound needed for inhibiting binding of 50% [^3H]Spiperone to D2 receptor). Two tubes under each concentration are measured, and each compound is subjected to two independent tests.

A short description of a further series: in vivo. As to conditions: mouse, po.
The target of a further series is T2, rD2R (Rattus norvegicus, UniProt P61169).
T2 construct: expressed in transfected cells; host or cells: CHO cells stably expressing rD2R (CHO-rD2)
The series can be described thus: Antagonistic test of D2 receptor (cAMP radioimmunoassay, Forskolin + Dopamine, CHO-rD2 cells). Type of series: cell-based. As to conditions: 10 μM Forskolin + 10 μM Dopamine, cAMP generated. As to the method: An Antagonistic Test of D2 Receptor
CHO-rD2 cell is seeded on a 96-well plate at a concentration of 30,000 cells/well, and cultured overnight; each medicine is dissolved in a serum-free F12 culture media containing 100 μM of IBMX, and is added to the above cell for preculturing 30 minutes at 37° C.; thereafter a serum-free F12 culture media containing 10 μM of Forskolin and 10 μM of Dopamine is added and react for 8 minutes, and then 100 μl of pre-cooled 1M HClO4 is added to terminate the reaction. The reaction solution is allowed to stand on ice for 40 minutes, and thereto 20 μl of 2M K2CO3 is added to neutralize the reaction solution. The reaction solution is centrifuged at 3,000 rpm for 15 minutes at 4° C., and a KClO4 deposit is discarded. An amount of supernatant is diluted in 0.05M of acetic acid buffer, and the amount of generated cAMP is measured with radioimmunoassay method. […] See the kit's instructions for detailed steps. Two tubes under each concentration of each compound are measured, and each compound is subjected to two independent tests.
The ordinate of the dose-effect curve represents a reduced percentage of the amount of generated cAMP through antagonist of DA by the compound.

T1 sequence (P14416 whole entry): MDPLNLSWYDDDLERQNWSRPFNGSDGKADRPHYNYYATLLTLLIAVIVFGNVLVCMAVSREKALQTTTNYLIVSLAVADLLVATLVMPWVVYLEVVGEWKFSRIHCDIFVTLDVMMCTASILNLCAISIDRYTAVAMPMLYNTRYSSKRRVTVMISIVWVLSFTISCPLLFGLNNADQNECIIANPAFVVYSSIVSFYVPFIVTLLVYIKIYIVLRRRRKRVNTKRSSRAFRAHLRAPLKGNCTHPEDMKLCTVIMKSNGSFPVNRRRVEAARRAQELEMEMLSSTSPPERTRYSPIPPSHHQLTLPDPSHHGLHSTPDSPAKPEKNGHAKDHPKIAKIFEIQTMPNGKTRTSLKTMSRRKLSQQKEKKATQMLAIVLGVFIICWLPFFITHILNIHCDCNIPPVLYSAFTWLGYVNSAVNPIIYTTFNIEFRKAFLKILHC
T2 sequence (P61169 whole entry): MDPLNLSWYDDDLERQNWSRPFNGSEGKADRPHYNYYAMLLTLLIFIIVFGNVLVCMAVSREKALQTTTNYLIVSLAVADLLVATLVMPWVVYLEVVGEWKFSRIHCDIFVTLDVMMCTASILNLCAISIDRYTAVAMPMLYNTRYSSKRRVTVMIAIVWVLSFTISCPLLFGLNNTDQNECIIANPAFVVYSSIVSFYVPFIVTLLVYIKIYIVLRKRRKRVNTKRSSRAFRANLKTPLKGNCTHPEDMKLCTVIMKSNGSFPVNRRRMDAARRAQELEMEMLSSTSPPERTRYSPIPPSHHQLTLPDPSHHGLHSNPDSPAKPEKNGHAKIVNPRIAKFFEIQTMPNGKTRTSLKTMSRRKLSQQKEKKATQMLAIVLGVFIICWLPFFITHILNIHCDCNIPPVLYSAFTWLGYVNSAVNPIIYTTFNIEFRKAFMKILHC

Turning to `COc1ccc2onc(N3CCN(CCCCOc4ccc5c(c4)NC(=O)CC5)CC3)c2c1` [I-9, 7-[4-(4-(5-methoxy-benzisoxazolyl)-1-piperazinyl)-n-butoxy]-3,4-dihydro-2(1H)-quinolinone hydrochloride], the IC50 at dopamine D2 receptor was found to be 25 nM.
On the same count and under the same terms, in the case of `O=C1CCc2ccc(OCCCCN3CCN(c4noc5cc(Cl)ccc45)CC3)cc2N1` [I-1, 7-[4-(4-(6-chloro-benzisoxazolyl)-1-piperazinyl)-n-butoxy]-3,4-dihydro-2(1H)-quinolinone hydrochloride] it was 25.7 nM.
Same read-out and setting: the same measure for `O=C1CCc2ccc(OCCCN3CCC(c4noc5cc(F)ccc45)CC3)cc2N1` [II-2, 7-[3-(4-(6-fluoro-benzisoxazolyl)-1-piperidinyl)-n-propoxy]-3,4-dihydro-2(1H)-quinolinone hydrochloride]: 16.2 nM; for `O=C1CCc2ccc(OCCCCN3CCC(c4noc5ccc(O)cc45)CC3)cc2N1` [II-9, 7-[4-(5-hydroxy-benzisoxazolyl)-1-piperidinyl)-n-butoxy]-3,4-dihydro-2(1H)-quinolinone hydrochloride]: 78.8 nM; for `O=C1CCc2ccc(OCCCCN3CCN(c4noc5ccc(Br)cc45)CC3)cc2N1` [I-11, 7-[4-(4-(5-bromo-benzisoxazolyl)-1-piperazinyl)-n-butoxy]-3,4-dihydro-2(1H)-quinolinone hydrochloride]: 77.8 nM.
On the same count and under the same terms, in the case of `O=C1CCc2ccc(OCCCN3CCN(c4nsc5ccccc45)CC3)cc2N1` [III-2, 7-[3-(1,2-benzisothiazolyl)-1-piperazinyl]-n-propoxy]-3,4-dihydro-2(1H)-quinolinone hydrochloride] it was 76.8 nM.
Take `COc1ccc2c(N3CCN(CCCCOc4ccc5c(c4)NC(=O)CC5)CC3)nsc2c1` [III-4, 7-[4-(6-methoxy-1,2-benzisothiazolyl)-1-piperazinyl]-n-butoxy]-3,4-dihydro-2(1H)-quinolinone of hydrochloride]: the IC50 on dopamine D2 receptor stood at 17.9 nM.
Still for that read-out and setting: the same measure for `O=C1CCc2ccc(OCCCCN3CCN(c4noc5cc(F)ccc45)CC3)cc2N1` [I-4, 7-[4-(4-(6-fluoro-benzisoxazolyl)-1-piperazinyl)-n-butoxy]-3,4-dihydro-2(1H)-quinolinone hydrochloride]: 10.2 nM.
Still for that read-out and setting: the same measure for `COc1ccc2onc(C3CCN(CCCCOc4ccc5c(c4)NC(=O)CC5)CC3)c2c1` [II-6, 7-[4-(4-(5-methoxy-benzisoxazolyl)-1-piperidinyl)-n-butoxy]-3,4-dihydro-2(1H)-quinolinone hydrochloride]: 277 nM.
Still for that read-out and setting: in the case of `COc1ccc2snc(N3CCN(CCCCOc4ccc5c(c4)NC(=O)CC5)CC3)c2c1` [III-6, 7-[4-(5-methoxy-1,2-benzisothiazolyl)-1-piperazinyl]-n-butoxy]-3,4-dihydro-2(1H)-quinolinone hydrochloride] it was 15 nM; in that of `O=C1CCc2ccc(OCCCCN3CCN(c4noc5ccc(Cl)cc45)CC3)cc2N1` [I-2, 7-[4-(4-(5-chloro-benzisoxazolyl)-1-piperazinyl)-n-butoxy]-3,4-dihydro-2(1H)-quinolinone hydrochloride], 56.8 nM; in that of `O=C1CCc2ccc(OCCCCCN3CCC(c4noc5cc(F)ccc45)CC3)cc2N1` [II-3, 7-[5-(4-(6-fluoro-benzisoxazolyl)-1-piperidinyl)-pentyloxy]-3,4-dihydro-2(1H)-quinolinone hydrochloride], 202 nM.
On to `O=C1CCc2ccc(OCCCCN3CCC(c4noc5ccc(F)cc45)CC3)cc2N1` [II-7, 7-[4-(4-(5-fluoro-benzisoxazolyl)-1-piperidinyl)-n-butoxy]-3,4-dihydro-2(1H)-quinolinone hydrochloride], for which the IC50 at dopamine D2 receptor stood at 12.6 nM.
In “in vivo”, `O=C1Cc2cc(CCN3CCN(c4nsc5ccccc45)CC3)c(Cl)cc2N1` [ziprasidone] showed an LD50 of 1600 mg/kg.
In the case of `COc1cc2onc(C3CCN(CCCCOc4ccc5c(c4)NC(=O)CC5)CC3)c2cc1OC` [II-8, 7-[4-(4-(5,6-dimethoxy-benzisoxazolyl)-1-piperidinyl)-n-butoxy]-3,4-dihydro-2(1H)-quinolinone hydrochloride], the IC50 at dopamine D2 receptor stood at 23.8 nM.
The same measure, in the same setting: the same measure for `O=C1CCc2ccc(OCCCCN3CCN(c4noc5cc(O)ccc45)CC3)cc2N1` [I-8, 7-[4-(4-(6-hydroxy-benzisoxazolyl)-1-piperazinyl)-n-butoxy]-3,4-dihydro-2(1H)-quinolinone hydrochloride]: 157 nM; for “6-[4-(4-(3-(6-fluoro-benzisoxazolyl))-1-piperazinyl)-n-butoxy]-(1H)-indole [IV-3]”: 12.3 nM; for `COc1cccc2snc(N3CCN(CCCCOc4ccc5c(c4)NC(=O)CC5)CC3)c12` [III-7, 7-[4-(4-methoxy-1,2-benzisothiazolyl)-1-piperazinyl]-n-butoxy]-3,4-dihydro-2(1H)-quinolinone hydrochloride]: 168 nM.
Same read-out and setting: the same measure for `O=C1CCc2ccc(OCCCCN3CCC(c4noc5cc(Cl)ccc45)CC3)cc2N1` [II-5, 7-[4-(4-(6-chloro-benzisoxazolyl)-1-piperidinyl)-n-butoxy]-3,4-dihydro-2(1H)-quinolinone hydrochloride]: 15.8 nM; for `O=C1CCc2ccc(OCCCCN3CCN(c4noc5cc(C(F)(F)F)ccc45)CC3)cc2N1` [I-5, 7-[4-(4-(6-trifluoromethyl-benzisoxazolyl)-1-piperazinyl)-n-butoxy]-3,4-dihydro-2(1H)-quinolinone hydrochloride]: 53.6 nM; for `O=C1CCc2ccc(OCCCCN3CCN(c4noc5ccccc45)CC3)cc2N1` [I-3, 7-[4-(4-(benzisoxazolyl)-1-piperazinyl)-n-butoxy]-3,4-dihydro-2(1H)-quinolinone hydrochloride]: 99.3 nM.
Turning to `COc1ccc2c(N3CCN(CCCCOc4ccc5c(c4)NC(=O)CC5)CC3)noc2c1Br` [I-12, 7-[4-(4-(7-bromo-6-methoxy-benzisoxazolyl)-1-piperazinyl)-n-butoxy]-3,4-dihydro-2(1H)-quinolinone hydrochloride], on dopamine D2 receptor, the IC50 was determined as 10.2 nM.
Still for that read-out and setting: the same measure for `Cc1ccc2onc(N3CCN(CCCCOc4ccc5c(c4)NC(=O)CC5)CC3)c2c1` [I-7, 7-[4-(4-(5-methyl-benzisoxazoly)-1-piperazinyl)-n-butoxy]-3,4-dihydro-2(1H)-quinolinone hydrochloride]: 290 nM.
Take `O=C1CCc2ccc(OCCCCN3CCN(c4nsc5ccccc45)CC3)cc2N1` [III-1, 7-[4-(1,2-benzisothiazol-3-yl)-1-piperazinyl)-n-butoxy]-3,4-dihydro-2(1H)-quinolinone hydrochloride]: the IC50 came out at 56400 nM on rD2R and 5.23 nM at dopamine D2 receptor.
Consider `COc1cccc2c(N3CCN(CCCCOc4ccc5c(c4)NC(=O)CC5)CC3)nsc12` [III-5, 7-[4-(7-methoxy-1,2-benzisothiazolyl)-1-piperazinyl]-n-butoxy-3,4-dihydro-2(1H)-quinolinone hydrochloride], for which the half-maximal inhibitory concentration (IC50) on dopamine D2 receptor was found to be 15.8 nM.
Take `O=C1CCc2ccc(OCCCCN3CCC(c4noc5cc(O)c(O)cc45)CC3)cc2N1` [II-10, 7-[4-(5,6-dihydroxy-benzisoxazolyl)-1-piperidinyl)-n-butoxy]-3,4-dihydro-2(1H)-quinolinone hydrochloride]: on dopamine D2 receptor, the IC50 is 45.6 nM.
Still for that read-out and setting: in the case of `O=C1CCc2ccc(OCCCCN3CCC(c4noc5ccccc45)CC3)cc2N1` [II-4, 7-[(4-benzisoxazolyl-1-piperidinyl)-n-butoxy]-3,4-dihydro-2(1H)-quinolinone hydrochloride] it was 23.6 nM.
For `O=C1Cc2ccc(OCCCCN3CCC(c4noc5cc(F)ccc45)CC3)cc2N1` [IV-1, 6-[4-(4-(3-(6-fluoro-benzisoxazolyl))-1-piperidinyl)-n-butoxy)-indoline-2-one], the results for the IC50 on rD2R and on dopamine D2 receptor were 198000 nM and 38.9 nM, respectively.

Usually IC50 stands for the concentration that inhibits the measured activity by half. For orientation: LD50 means the dose at which mortality reaches 50%.
